Experimental data as given in patent US8598183B2, “Solid state forms of a potent HCV inhibitor” (Boehringer Ingelheim International GmbH, priority 2010, dated 2013).
Marks after values point to notes of the source that are not given here.

Key:
Assay type in all cases: physicochemical
[1] = Solubility of Compound (1) in physiological pH range; thermodynamic solubility
Procedure: Doses of Compound (1) up to 400 to 600 mg per dose may be required to be delivered to obtain exposures necessary for sufficient efficacy in vivo. Based on thermodynamic solubility of Compound (1), solubility of 0.005-0.01 mg/ml is estimated for Compound (1) sodium salt.

[2] = Powder dissolution / solubility of Compound (1) sodium salt in water at different concentrations; details: for % dissolved / CMC value: water; for CMC value: estimated
Procedure: Based on thermodynamic solubility of Compound (1), solubility of 0.005-0.01 mg/ml is estimated for Compound (1) sodium salt. […] This unique behavior of high solubility at high drug concentrations is most likely attributable to tendency of the drug substance to self-micellize. A CMC value of 41.4 mM (corresponding to 28 mg/mL) is estimated.

[3] = Powder dissolution of triturated mixtures in capsules in 500 mL pH 6.8 buffer; details: capsule
Excerpt: One class of solubilizer excipients, basifiers, act by increasing the microenvironment pH and thereby increasing the local solubility of the drug (for a drug containing an acid moiety). Another class of solubilizer excipients, surfactants, also act by increasing the local solubility of the drug. […] For example, an enhancement in dissolution was obtained when surfactants, for example, sodium lauryl sulfate or Vitamin E TPGS, were used in combination with basifiers, for example, L-arginine, meglumine or L-lysine. […] For example, only 1% drug release was obtained when Compound (1) sodium salt crystalline was present. The % drug release was 54% at 60 minutes in the presence of 100 mg Arginine alone and 59% in the presence of Sodium lauryl sulfate alone (Table 2). However, in presence of 100 mg of Arginine along with 100 mg of Sodium lauryl sulfate, the % drug release increased to 93% at 60 minutes (Table 3) indicating enhancement in dissolution when both surfactant and basifier were used in combination.

Question: What does the source list for `Cn1c(C2(NC(=O)c3ccc4c(C5CCCC5)c(-c5ncc(Br)cn5)n(C)c4c3)CCC2)nc2ccc(/C=C/C(=O)[O-])cc21.[Na+]` [Compound (1) sodium salt]?
Answer: solubility estimated based on thermodynamic solubility of Compound (1) [1]: 5 to 10 µg/mL; dissolution in water ([2]; concentrations exceeding the CMC value): dissolves completely; % dissolved ([2]; conc 0.1 mg/ml): 13.4%; % dissolved ([2]; conc 0.3 mg/ml): 15.0%; % dissolved ([2]; conc 1.0 mg/ml): 15.4%; % dissolved ([2]; conc 3.0 mg/ml): 46.6%; % dissolved ([2]; conc 10.0 mg/ml): 90.0%; % dissolved ([2]; conc 30.0 mg/ml): 100.0%; % dissolved ([2]; conc 100.0 mg/ml): 100.0%; % dissolved ([2]; conc 200.0 mg/ml): 100.0%; % dissolved ([2]; concentrations ≦1 mg/mL): 15%; CMC value [2]: 41.4 mM; CMC value ([2]; corresponding to the mM value): 28 mg/mL; % Release, average (range) ([3]; 200 mg drug + Arginine 100 mg, 90 (infinity), n = 4): 54 (40-58) %; % Release, average (range) ([3]; 200 mg drug + Arginine 100 mg, 15 min, n = 4): 43 (27-53)* %; % Release, average (range) ([3]; 200 mg drug + Arginine 100 mg, 30 min, n = 4): 54 (39-62) %; % Release, average (range) ([3]; 200 mg drug + Arginine 100 mg, 60 min, n = 4, listed as Compound (1) Na Salt): 54 (38-60) %; % Release, average (range) ([3]; 200 mg drug + Arginine 100 mg, 60 min, n = 4, listed as Compound (1) sodium salt crystalline): 54%; % Release, Average of n = 2 (range) ([3]; 200 mg drug + Arginine + SDS (40 mg + 20 mg), 15 min): 74 (70-78) %; % Release, Average of n = 2 (range) ([3]; 200 mg drug + Arginine + SDS (40 mg + 20 mg), 30 min): 77 (74-80) %; % Release, Average of n = 2 (range) ([3]; 200 mg drug + Arginine + SDS (40 mg + 20 mg), 60 min): 76 (74-78) %; % Release, Average of n = 2 (range) ([3]; 200 mg drug + Arginine + SDS (40 mg + 20 mg), 90 min): 72 (70-74) %; % Release, Average of n = 2 (range) ([3]; 200 mg drug + Arginine + SDS (100 mg + 100 mg), 15 min): 92 (91-93) %; % Release, Average of n = 2 (range) ([3]; 200 mg drug + Arginine + SDS (100 mg + 100 mg), 30 min): 93 (93-94) %; % Release, Average of n = 2 (range) ([3]; 200 mg drug + Arginine + SDS (100 mg + 100 mg), 60 min, listed as Compound (1) Na Salt): 93 (93-93) %; % Release, Average of n = 2 (range) ([3]; 200 mg drug + Arginine + SDS (100 mg + 100 mg), 60 min, listed as Compound (1) sodium salt crystalline): 93%; % Release, Average of n = 2 (range) ([3]; 200 mg drug + Arginine + SDS (100 mg + 100 mg), 90 min): 91 (89-92) %; % Release, Average of n = 2 (range) ([3]; 200 mg drug + Arginine + VitE TPGS (40 mg + 20 mg), 15 min): 62 (61-63) %; % Release, Average of n = 2 (range) ([3]; 200 mg drug + Arginine + VitE TPGS (40 mg + 20 mg), 30 min): 64 (62-67) %; % Release, Average of n = 2 (range) ([3]; 200 mg drug + Arginine + VitE TPGS (40 mg + 20 mg), 60 min): 65 (63-68) %; % Release, Average of n = 2 (range) ([3]; 200 mg drug + Arginine + VitE TPGS (40 mg + 20 mg), 90 min): 63 (60-66) %; % Release, Average of n = 2 (range) ([3]; 200 mg drug + Arginine + VitE TPGS (100 mg + 100 mg), 15 min): 76 (74-78) %; % Release, Average of n = 2 (range) ([3]; 200 mg drug + Arginine + VitE TPGS (100 mg + 100 mg), 30 min): 77 (76-78) %; % Release, Average of n = 2 (range) ([3]; 200 mg drug + Arginine + VitE TPGS (100 mg + 100 mg), 60 min): 78 (78-78) %; % Release, Average of n = 2 (range) ([3]; 200 mg drug + Arginine + VitE TPGS (100 mg + 100 mg), 90 min): 76 (75-76) %; % Release, average (range) ([3]; 200 mg drug + Lysine 100 mg, 90 (infinity), n = 4): 44 (33-46) %; % Release, average (range) ([3]; 200 mg drug + Lysine 100 mg, 15 min, n = 4): 18 (9-27) %; % Release, average (range) ([3]; 200 mg drug + Lysine 100 mg, 60 min, n = 4): 47 (33-54) %; % Release, Average of n = 2 (range) ([3]; 200 mg drug + Lysine + SDS (40 mg + 20 mg), 15 min): 75 (74-77) %; % Release, Average of n = 2 (range) ([3]; 200 mg drug + Lysine + SDS (40 mg + 20 mg), 30 min): 77 (76-78) %; % Release, Average of n = 2 (range) ([3]; 200 mg drug + Lysine + SDS (40 mg + 20 mg), 60 min): 75 (74-75) %; % Release, Average of n = 2 (range) ([3]; 200 mg drug + Lysine + SDS (40 mg + 20 mg), 90 min): 72 (70-74) %; % Release, Average of n = 2 (range) ([3]; 200 mg drug + Lysine + SDS (100 mg + 100 mg), 15 min): 40 (37-42) %; % Release, Average of n = 2 (range) ([3]; 200 mg drug + Lysine + SDS (100 mg + 100 mg), 30 min): 74 (67-82) %; % Release, Average of n = 2 (range) ([3]; 200 mg drug + Lysine + SDS (100 mg + 100 mg), 60 min): 85 (85-86) %; % Release, Average of n = 2 (range) ([3]; 200 mg drug + Lysine + SDS (100 mg + 100 mg), 90 min): 85 (84-85) %; % Release, Average of n = 2 (range) ([3]; 200 mg drug + Lysine + VitE TPGS (40 mg + 20 mg), 15 min): 37 (33-41) %; % Release, Average of n = 2 (range) ([3]; 200 mg drug + Lysine + VitE TPGS (40 mg + 20 mg), 30 min): 69 (69-70) %; % Release, Average of n = 2 (range) ([3]; 200 mg drug + Lysine + VitE TPGS (40 mg + 20 mg), 60 min): 71 (70-72) %
